Experimental data as given in patent US20240381872A1, “SUBSTITUTED 2,3-DIHYDRO[1,3]THIAZOLO[4,5-B]PYRIDINES, SALTS THEREOF AND THEIR USE AS HERBICIDALLY ACTIVE SUBSTANCES” (BAYER AKTIENGESELLSCHAFT, priority 2021, published 2024).

Assays:
Type in all cases: in vivo
[1] = test system: Matricaria inodora (MATIN); experiment: Herbicidal pre-emergence action, section A (Table A6); conditions: Tripleurospermum inodorum, pre-emergence, 504 h; application rate 1280 g/ha; visual grading after ca. 3 weeks vs untreated controls; read-out: pre-emergence activity against MATIN in %
Method in brief: (§1)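 Read-out is visual herbicidal effect in percent (100% = plants died, 0% = as control), graded ca. 3 weeks after treatment. Test compounds as WP or EC were applied to covering soil over sown seeds with 0.5% additive, 600 l water per hectare; greenhouse growth.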

Kochia scoparia (KCHSC) [2] = experiment: Herbicidal pre-emergence action, section A (Table A4); conditions: Bassia scoparia, pre-emergence, 504 h; application rate 1280 g/ha; visual grading after ca. 3 weeks vs untreated controls; read-out: pre-emergence activity against KCHSC in %
Method in brief: as §1

Stellaria media (STEME) [3] = experiment: Herbicidal post-emergence action, section B (Table B9); conditions: Stellaria media, post-emergence, 504 h, visual rating about 3 weeks after treatment vs untreated controls, read-out: post-emergence activity against STEME in %
Method in brief: (§2)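 Scores are visual % activity relative to untreated plants (0% = like control, 100% = dead), taken about 3 weeks after spraying. Compounds, as WP or EC in water with 0.5% additive at 600 L/ha, went onto one-leaf-stage weeds grown from seed in sandy loam under greenhouse conditions.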

[4] = test system: Echinochloa crus-galli (ECHCG); experiment: Herbicidal post-emergence action, section B (Table B3); conditions: Echinochloa crus-galli, 504 h, application rate 1280 g/ha, rated visually after about 3 weeks, read-out: post-emergence activity against ECHCG in %
Procedure: (§3) Seeds of mono- and dicotyledonous weed plants were placed in plastic pots in sandy loam soil (doubly sown with in each case one species of mono- or dicotyledonous weed plants per pot), covered with soil and cultivated in a greenhouse under controlled growth conditions. 2 to 3 weeks after sowing, the test plants were treated at the one-leaf stage. The compounds of the invention, formulated in the form of wettable powders (WP) or as emulsion concentrates (EC), were applied onto the green parts of the plants as aqueous suspension or emulsion with addition of 0.5% additive at a water application rate of 600 liters per hectare (converted). After the test plants had been kept in the greenhouse under optimum growth conditions for about 3 weeks, the activity of the preparations was rated visually in comparison to untreated controls. For example, 100% activity=the plants have died, 0% activity=like control plants.

Stellaria media (STEME) [5] = experiment: Herbicidal pre-emergence action, section A (Table A9); conditions: Stellaria media, 504 h, application rate 320 g/ha, read-out: pre-emergence activity against STEME in %
Method in brief: as §1

[6] = test system: Amaranthus retroflexus (AMARE); experiment: Herbicidal pre-emergence action, section A (Table A11); conditions: Amaranthus retroflexus, 504 h, application rate 1280 g/ha, read-out: pre-emergence activity against AMARE in %
Method in brief: as §1

[7] = test system: Digitaria sanguinalis (DIGSA); experiment: Herbicidal pre-emergence action, section A (Table A12); conditions: Digitaria sanguinalis, 504 h, read-out: pre-emergence activity against DIGSA in %
Method in brief: as §1

Lolium rigidum (LOLRI) [8] = experiment: Herbicidal pre-emergence action, section A (Table A5); conditions: Lolium rigidum, pre-emergence, 504 h; application rate 1280 g/ha; visual grading after ca. 3 weeks vs untreated controls; read-out: pre-emergence activity against LOLRI in %
Method in brief: as §1

Veronica persica (VERPE) [9] = experiment: Herbicidal post-emergence action, section B (Table B10); conditions: Veronica persica, post-emergence, 504 h, visual rating about 3 weeks after treatment vs untreated controls, read-out: post-emergence activity against VERPE in %
Method in brief: as §2

Poa annua (POAAN) [10] = experiment: Herbicidal post-emergence action, section B (Table B7); conditions: Poa annua, post-emergence, 504 h; application rate 320 g/ha; visual rating about 3 weeks after treatment vs untreated controls; read-out: post-emergence activity against POAAN in %
Method in brief: as §2

Veronica persica (VERPE) [11] = experiment: Herbicidal pre-emergence action, section A (Table A10); conditions: Veronica persica, 504 h, application rate 320 g/ha, read-out: pre-emergence activity against VERPE in %
Method in brief: as §1

Poa annua (POAAN) [12] = experiment: Herbicidal pre-emergence action, section A (Table A7); conditions: Poa annua, pre-emergence, 504 h; application rate 1280 g/ha; visual grading after ca. 3 weeks vs untreated controls; read-out: pre-emergence activity against POAAN in %
Method in brief: as §1

Setaria viridis (SETVI) [13] = experiment: Herbicidal pre-emergence action, section A (Table A8); conditions: Setaria viridis, 504 h, application rate 1280 g/ha, read-out: pre-emergence activity against SETVI in %
Method in brief: as §1

Lolium rigidum (LOLRI) [14] = experiment: Herbicidal post-emergence action, section B (Table B5); conditions: Lolium rigidum, post-emergence, 504 h; application rate 1280 g/ha; visual rating about 3 weeks after treatment vs untreated controls; read-out: post-emergence activity against LOLRI in %
Procedure: as §3

Kochia scoparia (KCHSC) [15] = experiment: Herbicidal post-emergence action, section B (Table B4); conditions: Bassia scoparia, post-emergence, 504 h, visual rating about 3 weeks after treatment vs untreated controls, read-out: post-emergence activity against KCHSC in %
Method in brief: as §2

[16] = test system: Echinochloa crus-galli (ECHCG); experiment: Herbicidal pre-emergence action, section A (Table A3); conditions: Echinochloa crus-galli, pre-emergence, 504 h, visual grading after ca. 3 weeks vs untreated controls, read-out: pre-emergence activity against ECHCG in %
Method in brief: as §1

[17] = test system: Abutilon theophrasti (ABUTH); experiment: Herbicidal post-emergence action, section B (Table B1); conditions: Abutilon theophrasti, 504 h, application rate 1280 g/ha, rated visually after about 3 weeks, read-out: post-emergence activity against ABUTH in %
Procedure: as §3

[18] = test system: Digitaria sanguinalis (DIGSA); experiment: Herbicidal post-emergence action, section B (Table B12); conditions: Digitaria sanguinalis, post-emergence, 504 h; application rate 1280 g/ha; visual rating about 3 weeks after treatment vs untreated controls; read-out: post-emergence activity against DIGSA in %
Procedure: as §3

[19] = test system: Amaranthus retroflexus (AMARE); experiment: Herbicidal post-emergence action, section B (Table B11); conditions: Amaranthus retroflexus, post-emergence, 504 h; application rate 320 g/ha; visual rating about 3 weeks after treatment vs untreated controls; read-out: post-emergence activity against AMARE in %
Method in brief: as §2

Setaria viridis (SETVI) [20] = experiment: Herbicidal post-emergence action, section B (Table B8); conditions: Setaria viridis, post-emergence, 504 h; application rate 1280 g/ha; visual rating about 3 weeks after treatment vs untreated controls; read-out: post-emergence activity against SETVI in %
Procedure: as §3

Cc1cscc1-c1nc2c(cc1C)[S+]([O-])CN2 (stereo not shown) [Example I-023]
90%: pest or weed control at 1280 g/ha [1] | pest or weed control at 1280 g/ha (Kochia scoparia (KCHSC) [2]) | pest or weed control at 1280 g/ha (Stellaria media (STEME) [3]; application rate 1280 g/ha) | pest or weed control at 1280 g/ha [4] | pest or weed control at 320 g/ha (Stellaria media (STEME) [5]) | pest or weed control at 1280 g/ha [6] | pest or weed control at 1280 g/ha (Veronica persica (VERPE) [9]; application rate 1280 g/ha) | pest or weed control at 320 g/ha (Poa annua (POAAN) [10]) | pest or weed control at 320 g/ha (Veronica persica (VERPE) [11]) | pest or weed control at 1280 g/ha (Lolium rigidum (LOLRI) [14]) | pest or weed control at 1280 g/ha (Kochia scoparia (KCHSC) [15]; application rate 1280 g/ha)
100%: pest or weed control at 1280 g/ha ([7]; application rate 1280 g/ha) | pest or weed control at 1280 g/ha (Lolium rigidum (LOLRI) [8]) | pest or weed control at 1280 g/ha (Poa annua (POAAN) [12]) | pest or weed control at 1280 g/ha (Setaria viridis (SETVI) [13]) | pest or weed control at 1280 g/ha ([16]; application rate 1280 g/ha)

NB1OB(N2CSc3cc(Br)c(-c4ccccc4Cl)nc32)O1 [Example I-048, 4-[6-bromo-5-(2-chlorophenyl)-2,3-dihydro[1,3]thiazolo[4,5-b]pyridin-3(2H)-yl]-1,3,2,4-dioxa-diboretan-2-amine]
90%: pest or weed control at 1280 g/ha [1] | pest or weed control at 1280 g/ha (Kochia scoparia (KCHSC) [2]) | pest or weed control at 1280 g/ha [17] | pest or weed control at 320 g/ha (Stellaria media (STEME) [3]; application rate 320 g/ha) | pest or weed control at 1280 g/ha [18] | pest or weed control at 1280 g/ha [4] | pest or weed control at 1280 g/ha [6] | pest or weed control at 320 g/ha [19] | pest or weed control at 1280 g/ha (Setaria viridis (SETVI) [20]) | pest or weed control at 320 g/ha (Veronica persica (VERPE) [9]; application rate 320 g/ha) | pest or weed control at 320 g/ha (Poa annua (POAAN) [10]) | pest or weed control at 1280 g/ha (Lolium rigidum (LOLRI) [14]) | pest or weed control at 320 g/ha (Kochia scoparia (KCHSC) [15]; application rate 320 g/ha)
100%: pest or weed control at 320 g/ha ([7]; application rate 320 g/ha) | pest or weed control at 1280 g/ha (Lolium rigidum (LOLRI) [8]) | pest or weed control at 1280 g/ha (Poa annua (POAAN) [12]) | pest or weed control at 1280 g/ha (Setaria viridis (SETVI) [13]) | pest or weed control at 320 g/ha ([16]; application rate 320 g/ha)
